{"source": "patent US10233209B2", "about": "“Inhibitors of the farnesoid x receptor and uses in medicine” (The United States of America, as represented by the …, priority 2013, dated 2019)", "key": {"FXR [1]": {"target": "T1, FXR (Mus musculus, UniProt Q60641)", "T1 construct": "Primary hepatocytes from Fxr^+/+ and Fxr^−/− mice were transfected with PGL4-Shp-TK firefly luciferase construct and the control plasmid phRL-SV40; endogenous in cells; host or cells: primary mouse hepatocytes (Fxr+/+; Fxr-/- as negative control)", "T1 sequence (Q60641 1-488)": "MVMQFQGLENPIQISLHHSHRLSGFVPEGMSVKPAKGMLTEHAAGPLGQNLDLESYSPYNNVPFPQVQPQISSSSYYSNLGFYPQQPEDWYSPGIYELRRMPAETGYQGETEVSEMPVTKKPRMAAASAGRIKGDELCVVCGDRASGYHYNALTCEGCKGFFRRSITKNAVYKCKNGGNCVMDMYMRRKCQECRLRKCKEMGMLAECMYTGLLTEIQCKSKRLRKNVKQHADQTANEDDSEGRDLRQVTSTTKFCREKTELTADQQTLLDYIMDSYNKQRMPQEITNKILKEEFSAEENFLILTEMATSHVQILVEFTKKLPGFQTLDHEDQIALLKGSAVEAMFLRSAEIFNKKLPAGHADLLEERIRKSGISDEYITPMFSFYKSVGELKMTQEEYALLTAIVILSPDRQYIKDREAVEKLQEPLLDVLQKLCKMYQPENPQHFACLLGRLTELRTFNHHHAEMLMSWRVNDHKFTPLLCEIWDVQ", "assay": "PGL4-Shp-TK luciferase assay in primary hepatocytes", "assay_type": "cell-based", "details": "primary hepatocytes from Fxr^+/+ mice; 100 μM TCA", "excerpt": "(§1) The PGL4-Shp-TK firefly luciferase construct and human Fxr expression plasmid were provided by Grace L. Guo of Rutgers University. The human Asbt expression plasmid was provided by Paul A. Dawson of Wake Forest University School of Medicine. The plasmids were transfected into cells using X-[…]™ HP DNA Transfection Reagent (Roche). The cells were lysed, and luciferase activities measured with a DUAL-LUCIFERASE™ assay kit (Promega). Firefly luciferase activity was normalized to Renilla luciferase activity.\nPrimary hepatocytes from Fxr^+/+ and Fxr^−/− mice were transfected with PGL4-Shp-TK firefly luciferase construct and the control plasmid phRL-SV40. After 24 h, the cells were treated with 100 μM taurocholic acid (TCA), TβMCA, or TβMCA with TCA. The cells were lysed, and luciferase activities measured as describe herein. The results are depicted in FIG. 1."}, "human FXR [2]": {"target": "T2, human FXR (Homo sapiens, UniProt Q96RI1)", "T2 construct": "expressed in transfected cells; host or cells: Caco-2", "T2 sequence (Q96RI1 1-486)": "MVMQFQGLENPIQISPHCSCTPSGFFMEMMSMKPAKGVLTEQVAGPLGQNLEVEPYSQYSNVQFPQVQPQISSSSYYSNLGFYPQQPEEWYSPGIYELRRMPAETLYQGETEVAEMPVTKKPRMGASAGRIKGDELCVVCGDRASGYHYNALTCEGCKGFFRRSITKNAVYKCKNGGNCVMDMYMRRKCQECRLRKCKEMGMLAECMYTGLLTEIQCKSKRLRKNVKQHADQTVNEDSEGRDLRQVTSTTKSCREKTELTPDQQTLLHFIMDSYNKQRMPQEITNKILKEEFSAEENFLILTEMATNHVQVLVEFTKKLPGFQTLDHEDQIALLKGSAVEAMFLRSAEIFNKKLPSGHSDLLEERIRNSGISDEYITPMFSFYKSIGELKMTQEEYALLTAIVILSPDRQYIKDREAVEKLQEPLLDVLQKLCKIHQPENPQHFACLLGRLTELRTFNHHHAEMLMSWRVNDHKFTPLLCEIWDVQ", "assay": "PGL4-Shp-TK luciferase assay in Caco-2 cells transfected with human FXR and human ASBT", "assay_type": "cell-based", "details": "100 μM TCA", "excerpt": "as §1\nCaco-2 cells were transfected with PGL4-Shp-TK firefly luciferase construct, the control plasmid phRL-SV40, and human FXR and human ASBT expression plasmids. After 24 h, the cells were treated with 100 μM TCA, TβMCA, or TβMCA with […] 100 μM TCA. The cells were lysed, and luciferase activities measured as describe herein. The results are depicted in FIG. 2."}, "human FXR [3]": {"target": "T3, human FXR (Homo sapiens, UniProt Q96RI1)", "T3 construct": "expressed in transfected cells; host or cells: HEK293T", "T3 sequence (Q96RI1 262-486 limits assumed)": "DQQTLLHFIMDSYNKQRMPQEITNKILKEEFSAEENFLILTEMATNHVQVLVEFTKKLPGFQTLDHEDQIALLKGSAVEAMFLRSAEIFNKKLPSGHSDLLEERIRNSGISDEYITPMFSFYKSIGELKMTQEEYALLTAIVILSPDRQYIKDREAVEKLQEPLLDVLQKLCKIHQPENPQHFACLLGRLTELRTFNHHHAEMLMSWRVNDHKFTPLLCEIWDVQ", "assay": "human FXR competition assay (GAL4-FXR chimeric receptor luciferase, HEK293T)", "assay_type": "cell-based", "details": "in the presence of GW4064", "method": "Luciferase detection was conducted using the Dual Luciferase Reporter Assay kit (Promega Corp., Madison, Wis.) and a Tecan GeniosPro luminescent plate reader (Research Triangle Park, N.C.).\nLuciferase detection was conducted using the Dual Luciferase Reporter Assay kit (Promega; Madison, Wis.) and a Tecan GeniosPro™ luminescent plate reader (Research Triangle Park, N.C.)."}, "FXR [4]": {"target": "T1, FXR", "assay": "FXR signaling in the ileum (Shp, Fgf15 mRNA)", "assay_type": "in vivo", "details": "mice treated with antibiotic on HFD for three days; TCA and TβMCA 400 mg/kg each, oral", "excerpt": "High-fat diet (HFD) (60% kcal consisting of fat) was purchased from Bioserv. […] Fxr^fl/fl and Fxr^ΔIE (Kim et al., J. Lipid Res. 48:2664-2672, 2007) mice were backcrossed with C57BL/6N mice for over 10 generations. For the antibiotic (the combination of bacitracin, neomycin, and streptomycin) study, male C57BL/6N mice from 6 weeks of age were fed a high-fat diet (“HFD) and administered 0.1% (w/v) of each compound (the combination of bacitracin, neomycin, and streptomycin) in the drinking water. […] For TβMCA in vivo, male C57BL/6N mice from 6 weeks of age were fed a HFD and treated with the antibiotics (0.1% of each compound of bacitracin, neomycin, and streptomycin combination) for 3 days. […] Cumulative food intake and TEEbal were measured for 1 week in vehicle and Gly-MCA-treated mice from 6 to 7 weeks of HFD. TEEbal was measured as previously described (Ravussin et al., Int. J. Obesity 37:399-403, 2013).\nThe mucosa of intestine was gently scraped and liver was taken and both were flash frozen in liquid nitrogen and stored at −80° C. until RNA was prepared. […] Measured mRNA levels were normalized to those of 18S ribosomal RNA and expressed as fold change relative to those of control group."}}, "note": "“Also recorded” adds a separate entry of the source.", "data": [{"smiles": "C[C@H](CCC(=O)NCCS(=O)(=O)O)[C@H]1CC[C@H]2[C@@H]3[C@@H](O)[C@@H](O)[C@@H]4C[C@H](O)CC[C@]4(C)[C@H]3CC[C@]12C", "note": "[TβMCA, tauro-β-muricholic acid]", "values": [{"measurement": "FXR activation by TCA (luciferase activity)", "setting": "FXR [1]", "value": "antagonizes farnesoid X receptor (FXR) activation; also recorded: antagonized FXR activation by TCA"}, {"measurement": "FXR activation by TCA (luciferase activity)", "setting": "human FXR [2]", "value": "antagonizes FXR activation; also recorded: antagonized FXR activation by TCA"}, {"measurement": "FXR activity induced by synthetic agonist GW4064 (luciferase, normalized to Renilla)", "setting": "human FXR [3]", "value": "inhibited FXR"}, {"measurement": "Shp and Fgf15 induction by the FXR agonist TCA in the ileum", "setting": "FXR [4]", "value": "significantly blunted"}]}]}
